# Where two headings read alike, the source gives them in different places.
# Experiments:
# [1] = Solubility assay at pH 7.4 in PBS; format: physicochemical; settings: for solubility at 24 h: 25 °C, pH 7.4, aqueous buffer, thermodynamic from solid; for Solubility in PBS: pH 7.4
# Description: Solubility assay at pH 7.4. […] The samples were shaken in an orbital shaker at 25° C. for 24 h. These suspensions were filtered through a PTFE 0.45 μm filter (VWR), and the solutions were chromatographically analyzed using a Perkin Elmer Ultra High Performance Liquid Chromatography (UHPLC) instrument, equipped with a reverse-phase (RP) C18 Phenomenex column (2.1×100 mm, 1.7 μm particle size). Gradient elution: the ratio of eluents A and B (0.1% trifluoroacetic acid in water and 0.1% trifluoroacetic acid in acetonitrile, respectively) changed linearly from 60% A-40% B to 0% A-100% B in 12 minutes, followed by 5 minutes in isocratic elution at 100% of eluent B and then 4 minutes in equilibration elution to reset the starting conditions. The flow rate was 0.5 mL/min. Standard injection volumes were either 2 or 4 μl for poorly soluble compounds. The detection system was a Perkin Elmer diode-array-detector. The wavelengths that were monitored for each compound were defined according to the compound's own absorption spectrum. Solubility, expressed as μM concentration of the saturated solution, was calculated via interpolation with external calibration curves that were obtained with solutions of each compound in acetonitrile.
# [2] = log D (pH 7.4), shake-flask n-octanol/PBS; settings: n-octanol/PBS pH 7.4, shake flask
# Description: (§1) Lipophilicity. The shake flask method was chosen to determinate logD7.4.
# (§2) The partition coefficients between n-octanol and PBS at pH 7.4 (log D^7.4) were obtained using the shake-flask technique at room temperature. In the shake-flask experiments, 50 mM of phosphate buffered saline pH 7.4 was used as the aqueous phase. The organic (n-octanol) and aqueous phases were mutually saturated by shaking for 4 h. The compounds were solubilized in the buffered aqueous phase at the highest concentration compatible with solubility and appropriate amounts of n-octanol were added. The two phases were shaken for about 20 min, by which time the partitioning equilibrium of solutes had been reached, and then centrifuged (10000 rpm, 10 min).
# recombinant hDHODH = recombinant hDHODH (Homo sapiens (Human), UniProt Q02127); experiment: hDHODH inhibition assay (DCIP reduction); format: biochemical
# hCoV-OC43 = experiment: Focus forming reduction assay (FFRA), hCoV-OC43 in HCT-8 cells, single concentration; format: cell-based; settings: HCT8 cells, 72 h p.i., vs DMSO control; for inhibition at 0.1 µM: Betacoronavirus 1, OC43, HCT-8, 72 h, read-out: % Decrease of hCoV-OC43 replication in presence of inhibitor 0.1 μM
# [3] = pH 7.4
# Description: as §1, §2
# [4] = recombinant GST-hDHODH, means ± SE of three independent experiments
# [5] = recombinant GST-hDHODH, means ± SE of three independent experiments, read-out: hDHODH IC50 ± SE
# Chain of recombinant hDHODH (Q02127 whole entry): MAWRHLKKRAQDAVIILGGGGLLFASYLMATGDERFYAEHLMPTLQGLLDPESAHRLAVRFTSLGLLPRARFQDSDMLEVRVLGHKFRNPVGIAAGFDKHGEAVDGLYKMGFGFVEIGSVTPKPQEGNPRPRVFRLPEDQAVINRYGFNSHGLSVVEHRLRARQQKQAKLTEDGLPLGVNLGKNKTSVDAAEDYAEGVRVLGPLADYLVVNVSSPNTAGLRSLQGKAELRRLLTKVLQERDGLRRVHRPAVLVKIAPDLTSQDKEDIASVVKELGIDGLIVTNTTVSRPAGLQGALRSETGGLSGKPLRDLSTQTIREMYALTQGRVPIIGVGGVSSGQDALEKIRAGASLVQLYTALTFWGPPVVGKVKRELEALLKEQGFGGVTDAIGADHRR
smiles,measurement,setting,value
"Cc1cc(NC(=O)c2c(O)nn3ccccc23)c(C(C)C)cc1Oc1ccccc1 [Compound 29, 2-Hydroxy-N-(2-isopropyl-5-methyl-4-phenoxyphenyl)pyrazolo[1,5-a]pyridine-3-carboxamide]",solubility at 24 h,[1],1.2 ± 0.28 µM
same,Log D7.4 ± SD,[2],3.18 ± 0.09
"Oc1nn2ccccc2c1-c1nnc(-c2c(F)c(F)c(-c3ccccc3)c(F)c2F)o1 [Compound 39, 3-(5-(2,3,5,6-Tetrafluoro-[1,1′-biphenyl]-4-yl)-1,3,4-oxadiazol-2-yl) pyrazolo [1,5-a]pyridine-2-ol]",hDHODH IC50 ± SE,recombinant hDHODH; [4],Inactive at 1 microM
"O=C(Nc1c(F)c(F)c(-c2ccnc(C(F)(F)F)c2)c(F)c1F)c1c(O)nn2ccccc12 [Compound 9, 2-Hydroxy-N-(2,3,5,6-tetrafluoro-4-(2-(trifluoromethyl)pyridin-4-yl)phenyl)pyrazolo[1,5-a]pyridine-3-carboxamide]",IC50,recombinant hDHODH; [5],150 ± 15 nM
same,inhibition at 0.1 µM,hCoV-OC43,> 50%
same,Log D7.4 ± SD,[3],1.84 ± 0.06
"O=C(Nc1c(F)c(F)c(-c2cccc(O)c2)c(F)c1F)c1c(O)nn2ccccc12 [Compound 14, 2-Hydroxy-N-(2,3,5,6-tetrafluoro-3′-hydroxy-[1,1′-biphenyl]-4-yl)pyrazolo[1,5-a]pyridine-3-carboxamide]",IC50,recombinant hDHODH; [5],2.78 ± 0.32 nM
same,solubility at 24 h,[1],55 µM
same,Log D7.4 ± SD,[3],1.82 ± 0.09
"O=C(Nc1c(F)c(F)c(-c2cccnc2)c(F)c1F)c1c(O)nn2ccccc12 [Compound 8, 2-Hydroxy-N-(2,3,5,6-tetrafluoro-4-(pyridin-3-yl)phenyl)pyrazolo[1,5-a]pyridine-3-carboxamide]",IC50,recombinant hDHODH; [5],6.23 nM
same,Log D7.4 ± SD,[3],0.98 ± 0.03
"O=C(Nc1c(F)c(F)c(-c2cccc(C(F)(F)F)c2)c(F)c1F)c1c(O)nn2ccccc12 [Compound 13, 2-Hydroxy-N-(2,3,5,6-tetrafluoro-3′-(trifluoromethyl)-[1,1′-biphenyl]-4-yl)pyrazolo[1,5-a]pyridine-3-carboxamide]",IC50,recombinant hDHODH; [5],6.34 ± 0.63 nM
same,Solubility in PBS,[1],<LOD
same,Log D7.4 ± SD,[3],2.69 ± 0.03
"Cc1cc(Oc2ccccc2)c(C(C)C)cc1NC(=O)c1c(O)nn2ccccc12 [Compound 30, 2-Hydroxy-N-(5-isopropyl-2-methyl-4-phenoxyphenyl)pyrazolo[1,5-a]pyridine-3-carboxamide]",solubility at 24 h,[1],0.98 ± 0.23 µM
same,Log D7.4 ± SD,[2],2.91 ± 0.07
"O=C(Nc1c(F)c(F)c(-c2cccc(OCCCO)c2)c(F)c1F)c1c(O)nn2ccccc12 [Compound 42, 2-Hydroxy-N-(2,3,5,6-tetrafluoro-3′-(3-hydroxypropoxy)-[1,1′-biphenyl]-4-yl) pyrazolo[1,5-a]pyridine-3-carboxamide]",IC50,recombinant hDHODH; [5],3.29 ± 0.33 nM
"COc1cccc(-c2c(F)c(F)c(NC(=O)c3c(O)nn4ccccc34)c(F)c2F)c1 [Compound 16, 2-Hydroxy-N-(2,3,5,6-tetrafluoro-3′-methoxy-[1,1′-biphenyl]-4-yl)pyrazolo[1,5-a]pyridine-3-carboxamide]",IC50,recombinant hDHODH; [5],2.75 ± 0.31 nM
"CCC(CC)Oc1cc(Oc2ccccc2)c(C)cc1NC(=O)c1c(O)nn2ccccc12 [Compound 35, 2-Hydroxy-N-(5-methyl-2-(pentan-3-yloxy)-4-phenoxyphenyl)pyrazolo[1,5-a]pyridine-3-carboxamide]",IC50,recombinant hDHODH,6980 ± 1010 nM
"Cc1cc(Sc2ccncc2)c(C)cc1NC(=O)c1c(O)nn2ccccc12 [Compound 26, 2-Hydroxy-N-(2,5-dimethyl-4-(pyridin-4-ylthio)phenyl) pyrazolo[1,5-a]pyridine-3-carboxamide]",IC50,recombinant hDHODH; [5],2210 ± 366 nM
same,Log D7.4 ± SD,[2],1.76 ± 0.07
"O=C(Nc1c(F)c(F)c(N2CCOCC2)c(F)c1F)c1c(O)nn2ccccc12 [Compound 6, 2-Hydroxy-N-(2,3,5,6-tetrafluoro-4-morpholinophenyl)pyrazolo[1,5-a]pyridine-3-carboxamide]",IC50,recombinant hDHODH; [5],90.9 nM
same,solubility at 24 h,[1],438 µM
same,Log D7.4 ± SD,[3],0.66 ± 0.08
"O=C(Nc1ccc(Oc2cccc(C(F)(F)F)c2)cn1)c1c(O)nn2ccccc12 [Compound 24, 2-Hydroxy-N-5-[3-(trifluoromethyl)phenoxy]piridin-2-ylpyrazolo[1,5-a]pyridine-3-carboxamide]",IC50,recombinant hDHODH; [5],> 10000 nM
"Cc1cc(NC(=O)c2c(O)nn3ccccc23)c(OC(C)C)cc1Oc1ccccc1 [Compound 31, 2-Hydroxy-N-(2-isopropoxy-5-methyl-4-phenoxyphenyl)pyrazolo[1,5-a]pyridine-3-carboxamide]",IC50,recombinant hDHODH; [5],5200 ± 924 nM
"Cc1cc(NC(=O)c2c(O)nn3ccccc23)c(C(C)C)cc1Oc1ccncc1 [Compound 36, 2-Hydroxy-N-(2-isopropyl-5-methyl-4-(pyridin-4-yloxy)phenyl)pyrazolo[1,5-a]pyridine-3-carboxamide]",solubility at 24 h,[1],111.1 ± 0.35 µM
same,Log D7.4 ± SD,[2],2.51 ± 0.07
"O=C(Nc1ccc(Oc2ccccc2)cn1)c1c(O)nn2ccccc12 [Compound 23, 2-Hydroxy-N-(5-phenoxypiridin-2-yl)pyrazolo[1,5-a]pyridine-3-carboxamide]",IC50,recombinant hDHODH; [5],12000 ± 1000 nM
"O=C(Nc1c(F)c(F)c(-c2ccc(C(F)(F)F)cc2)c(F)c1F)c1c(O)nn2ccccc12 [Compound 12, 2-Hydroxy-N-(2,3,5,6-tetrafluoro-4′-(trifluoromethyl)-[1,1′-biphenyl]-4-yl)pyrazolo[1,5-a]pyridine-3-carboxamide]",IC50,recombinant hDHODH; [5],71.8 nM
same,Solubility in PBS,[1],<LOD
same,Log D7.4 ± SD,[3],Insoluble
"CC(O)COc1cccc(-c2c(F)c(F)c(NC(=O)c3c(O)nn4ccccc34)c(F)c2F)c1 (stereo not drawn) [Compound 43, 2-Hydroxy-N-(2,3,5,6-tetrafluoro-3′-(2-hydroxypropoxy)-[1,1′-biphenyl]-4-yl) pyrazolo[1,5-a]pyridine-3-carboxamide]",IC50,recombinant hDHODH; [5],2.5 ± 0.2 nM
"O=C(Nc1c(F)c(F)c(-c2cccs2)c(F)c1F)c1c(O)nn2ccccc12 [Compound 7, 2-Hydroxy-N-(2,3,5,6-tetrafluoro-4-(thiophen-2-yl)phenyl)pyrazolo[1,5-a]pyridine-3-carboxamide]",IC50,recombinant hDHODH; [5],1.35 ± 0.45 nM
"O=C(Nc1ccc2[nH]ccc2c1)c1c(O)nn2ccccc12 [Compound 19, 2-Hydroxy-N-(1H-indol-5-yl)pyrazolo[1,5-a]pyridine-3-carboxamide]",IC50,recombinant hDHODH; [5],> 10000 nM
same,Log D7.4 ± SD,[2],0.45 ± 0.02
"Cc1cc(NC(=O)c2c(O)nn3ccccc23)c(C(C)C)cc1Oc1ccc(C(F)(F)F)cc1 [Compound 37, 2-Hydroxy-N-(2-isopropyl-5-methyl-4-(4-(trifluoromethyl)phenoxy)phenyl)pyrazolo[1,5-a]pyridine-3-carboxamide]",solubility at 24 h,[1],1.23 ± 0.09 µM
same,inhibition at 0.1 µM,hCoV-OC43,36.1%
Cc1cccc2c(C(=O)Nc3c(F)c(F)c(-c4ccccc4)c(F)c3F)c(O)nn12 [Compound 2],IC50,recombinant hDHODH; [5],4.3 nM
"Cc1cc(NC(=O)c2c(O)nn3ccccc23)c(OC2CCC2)cc1Oc1ccccc1 [Compound 32, N-(2-cyclobutoxy-5-methyl-4-phenoxyphenyl)-2-hydroxypyrazolo[1,5-a]pyridine-3-carboxamide]",IC50,recombinant hDHODH; [5],> 10000 nM
"O=C(Nc1c(F)c(F)c(-c2cccc(F)c2)c(F)c1F)c1c(O)nn2ccccc12 [Compound 11, 2-Hydroxy-N-(2,3,3′,5,6-pentafluoro-[1,1′-biphenyl]-4-yl)pyrazolo[1,5-a]pyridine-3-carboxamide]",IC50,recombinant hDHODH; [5],2.03 nM
same,Solubility in PBS,[1],<LOD
same,Log D7.4 ± SD,[3],2.09 ± 0.04
Cc1cc(NC(=O)c2c(O)nn3ccccc23)ccc1Oc1ccccc1 [Compound 27],IC50,recombinant hDHODH; [5],480 ± 31 nM
"O=C(Nc1c(F)c(F)c(-c2ccc(F)cc2)c(F)c1F)c1c(O)nn2ccccc12 [Compound 10, 2-Hydroxy-N-(2,3,4′,5,6-pentafluoro-[1,1′-biphenyl]-4-yl)pyrazolo[1,5-a]pyridine-3-carboxamide]",IC50,recombinant hDHODH; [5],17.7 nM
same,Solubility in PBS,[1],<LOD
same,Log D7.4 ± SD,[3],Insoluble
"CCCC(C)Oc1cc(Oc2ccccc2)c(C)cc1NC(=O)c1c(O)nn2ccccc12 (stereo not drawn) [Compound 34, 2-Hydroxy-N-(5-methyl-2-(pentan-2-yloxy)-4-phenoxyphenyl) pyrazolo[1,5-a]pyridine-3-carboxamide]",IC50,recombinant hDHODH; [5],2210 ± 346 nM
"CC(=O)COc1cccc(-c2c(F)c(F)c(NC(=O)c3c(O)nn4ccccc34)c(F)c2F)c1 [Compound 41, 2-Hydroxy-N-(2,3,5,6-tetrafluoro-3′-(2-oxopropoxy)-[1,1′-biphenyl]-4-yl) pyrazolo [1,5-a]pyridine-3-carboxamide]",IC50,recombinant hDHODH; [5],0.82 ± 0.1 nM
"O=C(Nc1c(F)c(F)c(-c2ccccc2)c(F)c1F)c1c(O)nn2c(Cl)cccc12 [Compound 4, 7-Chloro-2-hydroxy-N-(2,3,5,6-tetrafluoro-[1,1′-biphenyl]-4-yl)pyrazolo[1,5-a]pyridine-3-carboxamide]",IC50,recombinant hDHODH; [5],3.4 nM
same,Solubility in PBS,[1],<LOD
same,Log D7.4 ± SD,[3],2.81 ± 0.13
Cc1cc(Oc2ccccc2)c(C)cc1NC(=O)c1c(O)nn2ccccc12 [Compound 18],IC50,recombinant hDHODH; [5],43 ± 5 nM
"O=C(Nc1c(F)c(F)c(-c2cccc(OC(F)(F)F)c2)c(F)c1F)c1c(O)nn2ccccc12 [Compound 15, 2-Hydroxy-N-(2,3,5,6-tetrafluoro-3′-(trifluoromethoxy)-[1,1′-biphenyl]-4-yl)pyrazolo[1,5-a]pyridine-3-carboxamide]",IC50,recombinant hDHODH; [5],2.3 ± 0.33 nM
same,inhibition at 0.1 µM,hCoV-OC43,93.6%
same,Log D7.4 ± SD,[3],3.27 ± 0.19
"Oc1nn2ccccc2c1/N=N/c1ccc(Oc2ccccc2)cc1 [Compound 38, (E)-3-((4-phenoxyphenyl)diazinyl)pyrazolo[1,5-a]pyridin-2-ol]",hDHODH IC50 ± SE,recombinant hDHODH; [4],Inactive at 1 microM
Oc1nn2ccccc2c1/N=N/c1c(F)c(F)c(-c2ccccc2)c(F)c1F [Compound 25],IC50,recombinant hDHODH; [5],13 nM
same,% Decrease of hCoV-OC43 replication in presence of inhibitor 0.1 μM,hCoV-OC43,18.70%
"CCC(C)Oc1cc(Oc2ccccc2)c(C)cc1NC(=O)c1c(O)nn2ccccc12 (stereo not drawn) [Compound 33, N-(2-(Sec-butoxy)-5-methyl-4-phenoxyphenyl)-2-hydroxypyrazolo[1,5-a]pyridine-3-carboxamide]",IC50,recombinant hDHODH; [5],3940 ± 797 nM

# — patent publication US20240034730A1, “PYRAZOLO DERIVATIVES AS HUMAN DIHYDROOROTATE DEHYDROGENASE (HDHODH) INHIBITORS FOR USE AS ANTIVIRALS” (DRUG DISCOVERY AND CLINIC S.R.L., priority 2020, published 2024)
